US4594329A, “CRF analogs” (The Salk Institute for Biological Studies, priority 1984, dated 1986)
Square brackets hold non-standard residues; d marks the D form. Peptide text beside a SMILES is read from it. Nle = CCCC[C@H](N)C(=O)O; Orn = NCCC[C@H](N)C(=O)O

Assays:
[1] = lowering of blood pressure, in vivo testing; conditions: for lowering of blood pressure: general procedure of Example III
Description: (§1) The synthetic peptide AHC and oCRF were examined for their effects on the secretion of ACTH and β-endorphin in vitro and was also in vivo. The potency of synthetic oCRF to stimulate the secretion of ACTH and β-endorphin by cultured rat pituitary cells was measured using the procedure as generally set forth in Endocrinology, 91, 562 (1972). […] In vivo testing is carried out using the general procedure set forth in C. Rivier et al., Science, 218, 377 (1982).

[2] = test system: cultured rat pituitary cells; assay: secretion of ACTH and β-endorphin by cultured rat pituitary cells; format: cell-based
Description: as §1

[3] = general procedure of Example III

Row | Compound | lowering of blood pressure [1] | stimulates the secretion of ACTH and β-END-LI [2, 3] | other results
1 | CC[C@H](C)[C@H](NC(=O)[C@@H](NC(=O)[C@H](CC(=O)O)NC(=O)[C@H](CC(C)C)NC(=O)[C@H](CC(C)C)NC(=O)[C@H](CC(C)C)NC(=O)[C@H](CCCNC(=N)N)NC(=O)[C@H](CC(N)=O)NC(=O)[C@H](CC(N)=O)NC(=O)[C@H](C)NC(=O)[C@H](C)NC(=O)[C@H](CCC(N)=O)NC(=O)[C@H](CCC(=O)O)NC(=O)[C@H](CCCCN)NC(=O)[C@H](CCC(=O)O)NC(=O)[C@H](CCCCN)NC(=O)[C@H](CCC(=O)O)NC(=O)[C@H](CCC(N)=O)NC(=O)[C@H](CCCCN)NC(=O)[C@H](CCCNC(=N)N)NC(=O)[C@H](C)NC(=O)[C@H](CCC(=O)O)NC(=O)[C@@H](NC(=O)[C@H](CCSC)NC(=O)[C@H](CCCCN)NC(=O)[C@H](CCCNC(=N)N)NC(=O)[C@H](CC(C)C)NC(=O)[C@H](CC(C)C)NC(=O)[C@H](CCC(=O)O)NC(=O)[C@H](CC(C)C)NC(=O)[C@H](CO)NC(=O)[C@H](CC(C)C)NC(=O)[C@H](CC(=O)O)NC(=O)[C@@H](NC(=O)[C@H](CO)NC(=O)[C@@H](NC(=O)[C@@H]1CCCN1C(=O)[C@@H]1CCCN1C(=O)CNC(=O)[C@@H]1CCC(=O)N1)[C@@H](C)CC)[C@@H](C)CC)[C@@H](C)CC)[C@@H](C)CC)C(N)=O | very significant lowering of blood pressure | stimulates the secretion of ACTH and β-END-LI | –
2 | H-SQEPPISLDLTFHLLREVLE[Nle]TKADQLAEQAHSNRKLLDIA-NH2 [[Nle^21,Glu^29]-oCRF] | very significant lowering of blood pressure | stimulates the secretion of ACTH and β-END-LI | –
3 | H-SQEPPISLELTFHLLRE[Nle]LE[Nle]AKAEQEAEQAALNRLLLEEA-NH2 [[Glu^9, Nle^18, 21]-AHC] | very significant lowering of blood pressure | stimulates the secretion of ACTH and β-END-LI | –
4 | H-SEEPPISLDLTFHLLREVLEMTRAEQLAEQAHSNRKLMEEI-NH2 [[Thr^22, Glu^29,40]-rCRF] | very significant lowering of blood pressure | stimulates the secretion of ACTH and β-END-LI | –
5 | H-PPISIDLSLELLRKMIEIAKQEKEKEQAANNRLLMDTI-NH2 | very significant lowering of blood pressure | stimulates the secretion of ACTH and β-END-LI | –
6 | H-YSEEPPISLDLTFHLLREVLEMARAEQLAEQAHSNRKLMEII-NH2 [[Tyr-Ser^1, Glu^29]-rCRF] | very significant lowering of blood pressure | stimulates the secretion of ACTH and β-END-LI | –
7 | H-SQEPPISLDLTFALLREMLEMAKAEQEAEQAALNRLLLEEA-NH2 [[Ala^13]-AHC] | very significant lowering of blood pressure | stimulates the secretion of ACTH and β-END-LI | –
8 | H-SEEPPISLDLTLELLREMLEME[Orn]AEKEAEQAALNRLLLEEA-NH2 | very significant lowering of blood pressure | stimulates the secretion of ACTH and β-END-LI | –
9 | CCCC[C@H](NC(=O)[C@H](CCC(=O)O)NC(=O)[C@H](CC(C)C)NC(=O)[C@H](CCCC)NC(=O)[C@H](CCC(=O)O)NC(=O)[C@H](CCCNC(=N)N)NC(=O)[C@H](CC(C)C)NC(=O)[C@H](CC(C)C)NC(=O)[C@H](Cc1c[nH]cn1)NC(=O)[C@H](Cc1ccccc1)NC(=O)[C@@H](NC(=O)[C@H](CC(C)C)NC(=O)[C@H](CC(=O)O)NC(=O)[C@H](CC(C)C)NC(=O)[C@H](CO)NC(=O)[C@@H](NC(=O)[C@@H]1CCCN1C(=O)[C@H]1CCCN1C(=O)[C@H](N)Cc1ccc(O)cc1)[C@@H](C)CC)[C@@H](C)O)C(=O)N[C@@H](C)C(=O)N[C@@H](CCCCN)C(=O)N[C@@H](C)C(=O)N[C@@H](CCC(=O)O)C(=O)N[C@@H](CCC(N)=O)C(=O)N[C@@H](CCC(=O)O)C(=O)N[C@@H](C)C(=O)N[C@@H](CCC(=O)O)C(=O)N[C@@H](CCC(N)=O)C(=O)N[C@@H](C)C(=O)N[C@@H](C)C(=O)N[C@@H](CC(C)C)C(=O)N[C@@H](CC(N)=O)C(=O)N[C@@H](CCCNC(=N)N)C(=O)N[C@@H](CC(C)C)C(=O)N[C@@H](CC(C)C)C(=O)N[C@@H](CC(C)C)C(=O)N[C@@H](CCC(=O)O)C(=O)N[C@@H](CCC(=O)O)C(=O)N[C@@H](C)C(N)=O [[D-Tyr^3, D-Pro^4, Nle^18,21]-AHC(3-41)] (H-[dY][dP]PISLDLTFHLLRE[Nle]LE[Nle]AKAEQEAEQAALNRLLLEEA-NH2) | very significant lowering of blood pressure | – | secretion of ACTH and β-END-LI, amount relative to oCRF ([2]; % of oCRF, general procedure of Example III): about 470%
10 | H-SQEPPISLDLTLELLREMLEMAKAEQEAEQAALNRLYLEEA-NH2 [[Leu^12, Glu^13, Tyr^37]-AHC] | very significant lowering of blood pressure | stimulates the secretion of ACTH and β-END-LI | –
11 | H-SQ[dY][dP]PISLDLTFHLLRE[Nle]LE[Nle]AKAEQEAEQAALNRLLLEEA-NH2 [[D-Tyr^3, D-Pro^4, Nle^18, 21]-AHC] | very significant lowering of blood pressure | stimulates the secretion of ACTH and β-END-LI | –
12 | CC[C@H](C)[C@H](NC(=O)[C@H](CCC(=O)O)NC(=O)[C@H](CC(=O)O)NC(=O)[C@H](CCSC)NC(=O)[C@H](CC(C)C)NC(=O)[C@H](CCCCNC(=N)N)NC(=O)[C@H](CCCNC(=N)N)NC(=O)[C@H](CC(N)=O)NC(=O)[C@H](CC(N)=O)NC(=O)[C@H](C)NC(=O)[C@H](C)NC(=O)[C@H](CCC(N)=O)NC(=O)[C@H](CCC(N)=O)NC(=O)[C@H](CCCCN)NC(=O)[C@H](CC(C)C)NC(=O)[C@H](CCCCN)NC(=O)[C@H](CCC(=O)O)NC(=O)[C@H](CCC(N)=O)NC(=O)[C@H](CCCCN)NC(=O)[C@H](CCC(=O)O)NC(=O)[C@@H](NC(=O)[C@H](CCC(=O)O)NC(=O)[C@@H](NC(=O)[C@H](CCSC)NC(=O)[C@H](CCCCN)NC(=O)[C@H](CCCNC(=N)N)NC(=O)[C@H](CC(C)C)NC(=O)[C@H](CC(C)C)NC(=O)[C@H](CCC(=O)O)NC(=O)[C@H](CC(C)C)NC(=O)[C@H](CO)NC(=O)[C@H](CC(C)C)NC(=O)[C@H](CC(=O)O)NC(=O)[C@@H](NC(=O)[C@H](CO)NC(=O)[C@@H](NC(=O)[C@@H]1CCCN1C(=O)[C@@H]1CCCN1C(=O)CNC(=O)[C@@H]1CCC(=O)N1)[C@@H](C)CC)[C@@H](C)CC)[C@@H](C)CC)[C@@H](C)CC)C(N)=O | very significant lowering of blood pressure | stimulates the secretion of ACTH and β-END-LI | –
13 | H-SEEPPISLDLTFHLLREVLE[Nle]ARAEQLAQQAYLNRKLMEEI-NH2 [[Nle^21, Tyr^32, Leu^33, Glu^40]-rCRF] | very significant lowering of blood pressure | stimulates the secretion of ACTH and β-END-LI | lowering of blood pressure compared with rCRF ([1]; comparison with rCRF): to a greater extent than rCRF
14 | CCCC[C@H](NC(=O)[C@H](CCC(=O)O)NC(=O)[C@H](CC(C)C)NC(=O)[C@H](CCCC)NC(=O)[C@H](CCC(=O)O)NC(=O)[C@H](CCCNC(=N)N)NC(=O)[C@H](CC(C)C)NC(=O)[C@H](CC(C)C)NC(=O)[C@H](Cc1c[nH]cn1)NC(=O)[C@H](Cc1ccccc1)NC(=O)[C@@H](NC(=O)[C@H](CC(C)C)NC(=O)[C@H](CC(=O)O)NC(=O)[C@H](CC(C)C)NC(=O)[C@H](CO)NC(=O)[C@@H](NC(=O)[C@@H]1CCCN1)[C@@H](C)CC)[C@@H](C)O)C(=O)N[C@@H](C)C(=O)N[C@@H](CCCNC(=N)N)C(=O)N[C@@H](C)C(=O)N[C@@H](CCC(=O)O)C(=O)N[C@@H](CCC(N)=O)C(=O)N[C@@H](CCC(=O)O)C(=O)N[C@@H](C)C(=O)N[C@@H](CCC(=O)O)C(=O)N[C@@H](CCC(N)=O)C(=O)N[C@@H](C)C(=O)N[C@@H](C)C(=O)N[C@@H](CC(C)C)C(=O)N[C@@H](CC(N)=O)C(=O)N[C@@H](CCCNC(=N)N)C(=O)N[C@@H](CC(C)C)C(=O)N[C@@H](CC(C)C)C(=O)N[C@@H](CC(C)C)C(=O)N[C@@H](CCC(=O)O)C(=O)N[C@@H](CCC(=O)O)C(=O)N[C@@H](C)C(N)=O [[Nle^18,21,Arg^23]-AHC(5-41)] (H-PISLDLTFHLLRE[Nle]LE[Nle]ARAEQEAEQAALNRLLLEEA-NH2) | very significant lowering of blood pressure | stimulates the secretion of ACTH and β-END-LI | –
15 | H-SQEPPISLDLTFHLLREMLEMAKAEQEAEQAALNRLLLEEA-NH2 [AHC] | – | – | EC50 ([2]; cultured rat pituitary cells, read-out: concentration giving half-maximal responses, secretion of ACTH and β-endorphin): ~0.065 nM; potency ([2]; general statement, compared with native CRF, test not named): particularly potent; secretory response to maximal concentrations ([2]; maximal (1-5 nM) concentrations): at a plateau level
